Measurements reported in article PMC10538174, “Bioactivity-Guided Synthesis: In Silico and In Vitro Studies of β-Glucosidase Inhibitors to Cope with Hepatic Cytotoxicity” (Molecules, 2023).

Key:
[1] = system: β-glucosidase from E. coli; experiment: β-glucosidase enzyme inhibition assay (p-nitrophenyl-β-D-glucopyranoside substrate); assay type: biochemical; settings: for IC50: E. coli enzyme, pH 6.8, 37 °C, read at 405 nm, read-out: IC50 ± SEM against β-glucosidase; for % inhibition ± SD against β-glucosidase: test concentration not given
Description: β-glucosidase inhibition activity of the synthesized compounds, with an enzyme concentration of […] were used for the inhibition assay. The IC50 values were determined at different concentrations using Graph Pad Prism v5.0.
(§1) All of the reported results are the mean of three independent experiments, and those compounds showing > 50% inhibition were further analyzed for their IC50 values at different dilutions. The IC50 values were calculated by using nonlinear regression analysis and GraphPad Prism version 8. SEM = standard error mean.
The inhibition analysis of β-glucosidase was carried out, where p-nitrophenyl-β-D-glucopyranoside was used as a substrate, and the β-glucosidase from E. coli (purchased from Sigma Aldrich) was dissolved in buffer solution (pH 6.8). A total volume of 60 µL of sodium phosphate buffer, 10 µL of each test sample (dissolved in 1% DMSO), and 10 µL of enzyme (1.5 U/mL) were mixed together and incubated for 5 min at 37 °C, followed by the addition of 10 µL of p-nitrophenyl-β-D-glucopyranoside (dissolved in a buffer solution). Incubation of the mixture was carried out for 30 min, and 10 µL of 0.2 M sodium carbonate solution was subsequently added. DMSO (1%) was used as a negative control. The p-nitrophenol produced from p-nitrophenyl-β-D-glucopyranoside was measured at a λmax of 405 nm in order to evaluate the activity of the test compounds against β-glucosidase. The %inhibition of β-glucosidase was calculated by the following formula: %Inhibition=(100−sample/control×100
Graph Pad Prism v5.00 was used to find out the IC50 (concentration at which 50% of enzymatic activity was inhibited by the test sample) value from a second-order regression analysis.

[2] = system: HepG2 cells; experiment: MTT cell viability assay on HepG2 hepatic cancer cells; assay type: cell-based, human; settings: for viability at 200 µg / IC50: Homo sapiens, HepG2, 48 h, MTT, 48 h; for viability at 200 µg: concentration of 200 µg, read-out: % viability ± SD against HepG2 cancer cell lines; for IC50: read-out: IC50 ± SEM against HepG2 cancer cell line
Description: as §1
The human liver cells were cultivated in Dulbecco’s modified Eagle medium (DMEM), in which 100 U/mL penicillin, 10% fetal bovine, and 100 µg/mL streptomycin were added and kept at 37 °C in a […] carbon dioxide-induced humidified environment. The human liver cells prepared as per the above procedure were then treated with synthesized compounds diluted to a 0.05% DMSO concentration.
By using an MTT assay, the %viability of cancer cells was evaluated. According to the standard procedure, the HepG2 cells were treated with various dosages of synthesized compounds for 48 h each. The cells were then incubated for 4 h at 37 °C with 10 μMTT reagent (5 mg/mL). Next, 150 μL of DMSO was added to dissolve the formazan crystals. The λmax was recorded at […] in a microplate reader (Thermos Scientific, Waltham, MA, USA).

Compound | IC50 [1] | IC50 [2] | % inhibition ± SD against β-glucosidase [1] | β-glucosidase inhibition better than the standard ([1]; versus acarbose) | viability at 200 µg [2] | more anti-tumor activity against the HepG2 cell line than the known drug ([2]; versus thalidomide)
C[C@H]1O[C@H](O[C@H]2[C@H](O)[C@@H](O)[C@@H](O[C@H]3[C@H](O)[C@@H](O)C(O)O[C@@H]3CO)O[C@@H]2CO)[C@H](O)[C@@H](O)[C@@H]1N[C@H]1C=C(CO)[C@@H](O)[C@H](O)[C@H]1O (stereo partly shown) [Acarbose, reference compound] | 2.15 µM |  |  |  |  | 
O=C(O)c1ccccc1C(=O)Nc1ccc(Cl)c(C(F)(F)F)c1 [Compound 3c] | 3 ± 0.17 µM |  | 70 ± 2.82% |  | 12.8% | greater than 9%
O=C(O)c1ccccc1C(=O)Nc1ccc(Cl)cc1 [Compound 4c] |  |  | 42 ± 1.42% |  | 26.9% | 
O=C1c2ccccc2C(=O)N1Cc1ccccc1 [Compound 6c] |  |  | 45.0 ± 1.41% |  |  | 
O=C(O)CCCCCN1C(=O)c2ccccc2C1=O [Compound 8c] | 4.78 ± 0.27 µM |  | 70.5 ± 2.12% |  | 24.8% | 
O=C(O)c1ccc(N2C(=O)c3ccccc3C2=O)cc1 [Compound 9c] |  |  | 61.5 ±0.12% |  |  | 
O=C1c2ccccc2C(=O)N1c1ccccc1F [Compound 10c] |  | 48 ± 2.18 µM | 50.5 ± 2.31% |  | 20.5 ± 4.2% | 
Cc1c(N2C(=O)c3ccccc3C2=O)c(=O)n(-c2ccccc2)n1C [Compound 11c] | 9.57 ± 0.22 µM |  | 56.5 ± 2.45% |  | 40.8 ± 2.5% | 
O=C1c2ccccc2C(=O)N1c1ccccc1 [Compound 12c] |  |  | 45.2 ±0.4% |  | 27.2% | 

Further lines, with some results ahead:

IC50 [1] | IC50 [2] | Compound | % inhibition ± SD against β-glucosidase [1] | β-glucosidase inhibition better than the standard ([1]; versus acarbose) | viability at 200 µg [2] | more anti-tumor activity against the HepG2 cell line than the known drug ([2]; versus thalidomide)
1.26 µM |  | O=C(O)c1ccc(NC(=O)c2ccccc2C(=O)O)cc1 [Compound 1c] | 76 ± 1.41% | 40% | 35.6% | 
2.17 ± 0.11 µM |  | O=C(O)c1ccccc1C(=O)Nc1ccc([N+](=O)[O-])cc1 [Compound 2c] | 68 ± 1.41% |  | 29.4% | 
1.26 ± 0.11 µM |  | O=C(O)c1ccccc1C(=O)N1CCN(CCN2C(=O)c3ccccc3C2=O)CC1 [Compound 5c] | 71 ± 1.2% |  | 42.2 ± 2.2% | 
6.98 ± 0.31 µM | 12.8 ± 2.33 µM | Cc1ccc(N2C(=O)c3ccccc3C2=O)cc1 [Compound 7c] | 63.5 ± 0.71% |  | 21.4 ± 3.4% | 
